Measurements published in the NIST ThermoML archive (doi:10.1016/j.jct.2013.05.051).

Test: xn = mol fraction of the nth substance listed
Conditions: Liquid, Vibrating tube method, x2 = 0

CCCCCCC [heptane] + CCCCCCCO
mass density [kg/m3]
Conditions | 298.15 K | 313.15 K | 333.15 K | 353.15 K | 373.15 K | 393.15 K
100 kPa | 679.5 | 666.6 | 648.9 | 631.2 | – | –
1000 kPa | 680.4 | 667.6 | 650 | 632.1 | 613.3 | 593.5
5000 kPa | 684.2 | 671.8 | 655 | 637.8 | 620.1 | 601.7
10000 kPa | 688.6 | 676.7 | 660.6 | 644.3 | 627.7 | 610.6
15000 kPa | 692.8 | 681.3 | 665.8 | 650.3 | 634.5 | 618.4
20000 kPa | 696.7 | 685.6 | 670.6 | 655.7 | 640.7 | 625.4
25000 kPa | 700.4 | 689.5 | 675.1 | 660.8 | 646.3 | 631.7
30000 kPa | 704 | 693.5 | 679.4 | 665.5 | 651.6 | 637.5
35000 kPa | 707.4 | 697.1 | 683.4 | 670 | 656.5 | 643
40000 kPa | 710.7 | 700.5 | 687.3 | 674.1 | 661.1 | 648
45000 kPa | 713.8 | 703.9 | 690.9 | 678.1 | 665.5 | 652.8
50000 kPa | 716.8 | 707.2 | 694.4 | 682 | 669.6 | 657.2
55000 kPa | 719.7 | 710.3 | 697.7 | 685.5 | 673.5 | 661.5
60000 kPa | 722.5 | 713.3 | 701 | 689.1 | 677.3 | 665.5
65000 kPa | 725.2 | 716.1 | 704.1 | 692.4 | 680.8 | 669.3
70000 kPa | 727.9 | 718.9 | 707.1 | 695.7 | 684.3 | 673.1
80000 kPa | 732.9 | 724.2 | 712.8 | 701.7 | 690.8 | 680.1
90000 kPa | 737.7 | 729.3 | 718.2 | 707.5 | 696.9 | 686.5
100000 kPa | 742.3 | 734 | 723.2 | 712.8 | 702.6 | 692.5
110000 kPa | 746.6 | 738.6 | 728.1 | 717.9 | 708 | 698.2
120000 kPa | 750.7 | 742.8 | 732.6 | 722.7 | 713 | 703.4
130000 kPa | 754.6 | 747 | 737 | 727.3 | 717.9 | 708.5
140000 kPa | 758.4 | 751.1 | 741.1 | 731.6 | 722.3 | 713.4
